# Values quoted from earlier work as cited in patent US20170340738A1, “STABLE ACIDIC INSULIN FORMULATIONS” (MERCK SHARP & DOHME CORP., priority 2012, published 2017).
# Details: administered once daily subcutaneously
substance,measurement,value
"Gly(A21), Arg(B31), Arg(B32)-human insulin [insulin glargine]",Basal coverage,24 h
